Usually IC50 stands for the midpoint of a concentration-inhibition curve. Lower therefore signals higher potency.

IC50 data for 19 compounds are collected here from patent US20230050965A1, “SSTR5 ANTAGONISTS” (Kallyope, Inc., priority 2019, published 2023).

T1 sequence (P35346 whole entry): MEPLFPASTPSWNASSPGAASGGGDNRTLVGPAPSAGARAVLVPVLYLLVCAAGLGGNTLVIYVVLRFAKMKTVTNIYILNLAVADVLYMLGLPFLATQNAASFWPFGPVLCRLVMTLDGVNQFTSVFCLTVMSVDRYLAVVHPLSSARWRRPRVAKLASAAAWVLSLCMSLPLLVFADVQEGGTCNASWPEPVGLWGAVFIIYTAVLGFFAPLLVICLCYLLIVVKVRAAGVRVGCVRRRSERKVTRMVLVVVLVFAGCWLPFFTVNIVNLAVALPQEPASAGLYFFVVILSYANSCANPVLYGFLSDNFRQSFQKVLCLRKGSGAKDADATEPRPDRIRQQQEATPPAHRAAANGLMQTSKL

The experiment has as its target T1, human SSTR5 (Homo sapiens, UniProt P35346).
T1 construct: expressed in transfected cells
In words: Inositol phosphate (IP1) accumulation assay, antagonist mode. It counts as cell-based. Conditions: CHO-K1 cells stably co-expressing human SSTR5 with Gqi5; pre-incubation with antagonist, then SST28 agonist; IP1 HTRF readout. The text has this:
Inositol Phosphate Accumulation Assay
CHO-K1 cells stably co-expressing human SSTR5 with Gqi5 were developed using Jump-In technology from Thermo-Fisher. Gqi5 is the mouse G alpha q protein, that was modified to interact with Gi-coupled GPCRs as described previously (Coward, P.; Chan, S. D.; Wada, H. G.; Humphries, G. M.; Conklin, B. R. Chimeric G proteins Allow a High-Throughput Signaling Assay of Gi-Coupled Receptors. Anal Biochem. 1999, 270(2), 242-248).
Co-expression of Gqi5 with SSTR5 allowed monitoring of SSTR5 activity by following IP1 accumulation. The assay was performed in a 384-well plate format using the IP1 assay kit from Cis-Bio in an antagonist mode, i.e., pre-incubation with antagonist following by receptor activation by agonist at a concentration generating 90% of full activation. Frozen cells expressing human SSTR5 were thawed, washed, and then plated in DMEM supplemented with 10% FBS and non-essential amino acids. 40 μL of 2.5×10^5 cells/mL were plated on a Poly D-Lysine coated 384-well white plate. The cells were then incubated for 16 hr. at 37° C./5% CO2. After 16 hour the medium was removed, and 10 μL of stimulation buffer was added to the cells. Test compounds were dissolved in DMSO at concentrations 2000-fold that of the final assay concentrations. 7.5 nL compound solutions were transferred to the cell plates using a Labcyte Echo® acoustic liquid handler. The plates were then incubated for 15 minutes at 37° C./5% CO2. After the first incubation, 5 μL of 30 nM SST28 were added to the cells, and the cells were incubated for 90 minutes at 37° C./5% CO2. 5 μL of detection buffer (prepared as described in the IP-1 kit) was added to each well, and the plates were incubated at RT for 1 hour.
TR-FRET was measured using a ClarioSTAR plate reader, calculating the ratio between emissions at 665 nm and 620 nm (HTRF ratio). The HTRF ratio for positive (Max) and negative (Min) controls were used to normalize HTRF data and generate values for % inhibition. IC50 and maximal inhibition values were determined using a standard 4-parameter fit.
`CCOc1cc(-c2ccc(F)cc2)c(C2CC2)cc1CN1CCC2(CC1)CN([C@H]1CC[C@@H](P(=O)(O)O)CC1)C(=O)O2` (single isomer, unassigned) [Compound 33, ((cis)-4-(8-((2-cyclopropyl-5-ethoxy-4'-fluoro-[1,1'-biphenyl]-4-yl)methyl)-2-oxo-1-oxa-3,8-diazaspiro[4.5]decan-3-yl)cyclohexyl)phosphonic acid]: the IC50 is not above 100 nM. Under `CCOc1cc(-c2ccc(F)cc2)c(C2CC2)cc1CN1CCC2(CC1)CN([C@H]1CC[C@H](P(=O)(O)O)CC1)C(=O)O2` (single isomer, unassigned) [Compound 34, ((trans)-4-(8-((2-cyclopropyl-5-ethoxy-4'-fluoro-[1,1'-biphenyl]-4-yl)methyl)-2-oxo-1-oxa-3,8-diazaspiro[4.5]decan-3-yl)cyclohexyl)phosphonic acid] stands not above 100 nM. As to `CCOc1nc(-c2ccc(F)cc2)c(C2CC2)cc1CN1CCC2(CC1)CN(c1ccc(P(C)(=O)O)cc1)C(=O)O2` [Compound 4, (4-(8-((5-cyclopropyl-2-ethoxy-6-(4-fluorophenyl)pyridin-3-yl)methyl)-2-oxo-1-oxa-3,8-diazaspiro[4.5]decan-3-yl)phenyl)(methyl)phosphinic acid], the IC50 is not above 100 nM. With `CCOc1cc(-c2ccc(F)cc2)c(C2CC2)cc1CN1CCC2(CC1)CN(c1ccc(P(=O)(O)O)cn1)C(=O)O2` [Compound 5, (6-(8-((2-cyclopropyl-5-ethoxy-4′-fluoro-[1,1′-biphenyl]-4-yl)methyl)-2-oxo-1-oxa-3,8-diazaspiro[4.5]decan-3-yl)pyridin-3-yl)phosphonic acid] the figure was not above 100 nM. With `CCOc1cc(-c2ccc(F)cc2)c(C2CC2)cc1CN1CCC2(CC1)CN(c1ccc(P(=O)(O)O)nc1)C(=O)O2` [Compound 6, (5-(8-((2-cyclopropyl-5-ethoxy-4′-fluoro-[1,1′-biphenyl]-4-yl)methyl)-2-oxo-1-oxa-3,8-diazaspiro[4.5]decan-3-yl)pyridin-2-yl)phosphonic acid] the figure was not above 100 nM; with `CCOc1cc(-c2ccc(F)cc2)c(C2CC2)cc1CN1CCC2(CC1)CC(=O)N(c1ccc(P(C)(=O)O)cc1)C2` [Compound 7, (4-(8-((2-cyclopropyl-5-ethoxy-4′-fluoro-[1,1′-biphenyl]-4-yl)methyl)-3-oxo-2,8-diazaspiro[4.5]decan-2-yl)phenyl)(methyl)phosphinic acid], not above 100 nM; with `CCOc1cc(C#N)c(C2CC2)cc1CN1CCC2(CC1)CN(c1ccc(P(C)(=O)O)cc1)C(=O)O2` [Compound 8, (4-(8-(4-cyano-5-cyclopropyl-2-ethoxybenzyl)-2-oxo-1-oxa-3,8-diazaspiro[4.5]decan-3-yl)phenyl)(methyl)phosphinic acid], not above 100 nM.

The compound `CCOc1nc(-c2ccc(F)cc2)c(C2CC2)cc1CN1CCC2(CC1)CN(c1ccc(P(=O)(O)O)cc1)C(=O)O2` [Compound 10, (4-(8-((5-cyclopropyl-2-ethoxy-6-(4-fluorophenyl)pyridin-3-yl)methyl)-2-oxo-1-oxa-3,8-diazaspiro[4.5]decan-3-yl)phenyl)phosphonic acid] showed a half-maximal inhibitory concentration (IC50) not above 100 nM. Under `CCOc1nc(-c2ccc(F)cc2)c(C2CC2)cc1CN1CCC2(CC1)CN(C13CC(CP(=O)(O)O)(C1)C3)C(=O)O2` [Compound 11, ((3-(8-((5-cyclopropyl-2-ethoxy-6-(4-fluorophenyl)pyridin-3-yl)methyl)-2-oxo-1-oxa-3,8-diazaspiro[4.5]decan-3-yl)bicyclo[1.1.1]pentan-1-yl)methyl)phosphonic acid] stands not above 100 nM.

In turn, `CCOc1cc(-c2ccc(F)cc2)c(C2CC2)cc1CN1CCC2(CC1)CN(C13CC(CP(=O)(O)O)(C1)C3)C(=O)O2` [Compound 12, ((3-(8-((2-cyclopropyl-5-ethoxy-4′-fluoro-[1,1′-biphenyl]-4-yl)methyl)-2-oxo-1-oxa-3,8-diazaspiro[4.5]decan-3-yl)bicyclo[1.1.1]pentan-1-yl)methyl)phosphonic acid] yielded an IC50 not above 100 nM. Under `CCOc1cc(-c2ccc(F)cc2)c(C2CC2)cc1CN1CCC2(CC1)CN(c1ccc(B(O)O)cc1)C(=O)O2` [Compound 13, (4-(8-((2-cyclopropyl-5-ethoxy-4′-fluoro-[1,1′-biphenyl]-4-yl)methyl)-2-oxo-1-oxa-3,8-diazaspiro[4.5]decan-3-yl)phenyl)boronic acid] stands not above 100 nM. With `CCOc1cc(-c2ccc(F)cc2)c(C2CC2)cc1CN1CCC2(CC1)CN(c1ccc(CCNC(=N)NC(=N)N)cc1)C(=O)O2` [Compound 14, 1-carbamimidoyl-3-[2-[4-[8-[[5-cyclopropyl-2-ethoxy-4-(4-fluorophenyl)phenyl]methyl]-2-oxo-1-oxa-3,8-diazaspiro[4.5]decan-3-yl]phenyl]ethyl]guanidine] the figure was not above 100 nM. Under `CCOc1cc(C(=O)OC)c(C2CC2)cc1CN1CCC2(CC1)CC(=O)N(c1ccc(CCCCNC(=O)NC(CO)(CO)CO)cc1)C2` [Compound 16, methyl 2-cyclopropyl-4-((2-(4-(4-(3-(1,3-dihydroxy-2-(hydroxymethyl)propan-2-yl)ureido)butyl)phenyl)-3-oxo-2,8-diazaspiro[4.5]decan-8-yl)methyl)-5-ethoxybenzoate] stands more than 5000 nM. Turning to `CCOc1cc(C(=O)OC)c(C2CC2)cc1CN1CCC2(CC1)CC(=O)N(c1ccc(CCCCNC=O)cc1)C2` [Compound 17, methyl 2-cyclopropyl-5-ethoxy-4-((2-(4-(4-formamidobutyl)phenyl)-3-oxo-2,8-diazaspiro[4.5]decan-8-yl)methyl)benzoate], the IC50 lay in the range of 100 to 1000 nM. With `CCOc1cc(C(=O)OC)c(C2CC2)cc1CN1CCC2(CC1)CC(=O)N(c1ccc(CCCCNS(C)(=O)=O)cc1)C2` [Compound 18, methyl 2-cyclopropyl-5-ethoxy-4-((2-(4-(4-(methylsulfonamido)butyl)phenyl)-3-oxo-2,8-diazaspiro[4.5]decan-8-yl)methyl)benzoate] the figure was 1000 to 5000 nM.

The compound `CCOc1cc(C(=O)OC)c(C2CC2)cc1CN1CCC2(CC1)CC(=O)N(c1ccc(CCCCNC(=O)CO)cc1)C2` [Compound 19, methyl 2-cyclopropyl-5-ethoxy-4-((2-(4-(4-(2-hydroxyacetamido)butyl)phenyl)-3-oxo-2,8-diazaspiro[4.5]decan-8-yl)methyl)benzoate] yielded an IC50 of 1000 to 5000 nM. Consider `CCOc1cc(C(=O)OC)c(C2CC2)cc1CN1CCC2(CC1)CC(=O)N(c1ccc(CCCCNC(N)=O)cc1)C2` [Compound 20, methyl 2-cyclopropyl-5-ethoxy-4-((3-oxo-2-(4-(4-ureidobutyl)phenyl)-2,8-diazaspiro[4.5]decan-8-yl)methyl)benzoate], for which the IC50 was 1000 to 5000 nM. With `CCOc1cc(C(=O)OC)c(C2CC2)cc1CN1CCC2(CC1)CN(c1ccc(P(=O)(O)O)cc1)C(=O)N2` [Compound 21, (4-(8-(5-cyclopropyl-2-ethoxy-4-(methoxycarbonyl)benzyl)-2-oxo-1,3,8-triazaspiro[4.5]decan-3-yl)phenyl)phosphonic acid] the figure was not above 100 nM. Under `CCOc1cc(-c2ccc(F)cc2)c(C2CC2)cc1CN1CCC2(CC1)CN(c1ccc(P(=O)(O)O)cc1)C(=O)N2` [Compound 22, (4-(8-((2-cyclopropyl-5-ethoxy-4′-fluoro-[1,1′-biphenyl]-4-yl)methyl)-2-oxo-1,3,8-triazaspiro[4.5]decan-3-yl)phenyl)phosphonic acid] stands not above 100 nM.
